Laboratory results from the supplement of paper PMC10290057.
Structures can show the parent of a compound that is named as a salt.

tested on: HCT116; test: efficacy (fitted maximal change in viability relative to DMSO control); higher = less cytotoxic (negative = loss of viability); details: 48 h
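Further: Luminescence-based viability readout, five doses per compound, normalized against on-plate DMSO and empty-well controls, followed by dose-response curve fitting for every drug.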

**Q.** Which efficacy does the source give for `CN1CC[C@@H](NC(=O)Nc2ccc(C#N)cc2)C[C@@H]1c1nc2ccccc2[nH]1` [Glasdegib] here?
**A.** The efficacy was -8.71%.

**Q.** With `CCC1=C(C)CN(C(=O)NCCc2ccc(S(=O)(=O)NC(=O)N[C@H]3CC[C@H](C)CC3)cc2)C1=O` [Glimepiride] as the molecule, how does the efficacy read?
**A.** Its efficacy is -14.8%.

**Q.** Which efficacy does the source give for `CN1[C@@H]2CCC[C@H]1CC(NC(=O)c1nn(C)c3ccccc13)C2` (stereo partly drawn) [Granisetron (AB-1001)] here?
**A.** The efficacy was -17.2%.

**Q.** Which efficacy does the source give for `C=CC(=O)Nc1cc(N2CCN(CC)CC2)ccc1Nc1cc(N(C)C(=O)Nc2c(Cl)c(OC)cc(OC)c2Cl)ncn1` [H3B-6527] here?
**A.** Its efficacy is -19.6%.

**Q.** With `CCOC(=O)C(C#N)C\1C2=CC(=CC=C2O\C(=C1C(=O)OCC)N)Br` (stereo not drawn) [HA-14-1] as the molecule, how does the efficacy read?
**A.** Its efficacy is -8.15%.

**Q.** With `Oc1cc2c(cc1O)C1c3ccc(O)c(O)c3OCC1(O)C2` (stereo not drawn) [Hematoxylin] as the molecule, how does the efficacy read?
**A.** Its efficacy is -9.9%.

**Q.** `CCC(c1ccc(O)cc1)C(CC)c1ccc(O)cc1` (stereo not drawn) [Hexestrol] was tested. Which efficacy did it give?
**A.** Its efficacy is -61.8%.

**Q.** With `CNc1nc(Nc2ccc(C(=O)N3CCOCC3)cc2OC)ncc1Cl` [Hg-10-102-01] as the molecule, how does the efficacy read?
**A.** The efficacy was -12.2%.

**Q.** `N[S+](=O)([O-])c1cc2c(cc1Cl)NCN[S+]2(=O)[O-]` [Hydrochlorothiazide] was tested. Which efficacy did it give?
**A.** The efficacy was 7.16%.

**Q.** For `C[C@]\12CCC(=O)\C=C1CC[C@H]3[C@@H]4CC[C@](O)(C(=O)CO)[C@@]4(C)C[C@H](O)[C@H]23` [Hydrocortisone], which efficacy is on record?
**A.** The efficacy was -23%.

**Q.** How did the efficacy turn out when `C/C1=C2/[N]3[Co+]456([OH])<-[N]7=C1[C@@H](CCC(N)=O)C(C)(C)/C7=C/C1=[N]->4C(=C(/C)C4=[N]->5[C@@](C)([C@H]3[C@H](CC(N)=O)[C@@]2(C)CCC(=O)NC[C@@H](C)OP(=O)([O-])O[C@H]2[C@@H](O)[C@@H](n3c[n]->6c5cc(C)c(C)cc53)O[C@@H]2CO)[C@@](C)(CC(N)=O)[C@@H]4CCC(N)=O)/[C@@](C)(CC(N)=O)[C@@H]1CCC(N)=O` [Hydroxocobalamin] was run?
**A.** The efficacy was -39.6%.

**Q.** With `CC(C)(O)C(=O)Nc1ccc([N+](=O)[O-])c(C(F)(F)F)c1` [Hydroxyflutamide] as the molecule, how does the efficacy read?
**A.** Its efficacy is -27.7%.

**Q.** Which efficacy does the source give for `C[C@H](CCC(=O)O)[C@H]1CCC2C3C[C@H](O)[C@@H]4C[C@H](O)CC[C@]4(C)C3CC[C@@]21C` (stereo partly drawn) [Hyodeoxycholic acid] here?
**A.** The efficacy was 5.2%.

**Q.** Which efficacy does the source give for `CCN(c1ccccc1)c1cc(NC)[n+](C)c(C)n1` [ICI-D7288] here?
**A.** Its efficacy is -13%.

**Q.** With `CC(C(C)N1CC(=O)NC(=O)C1)N1CC(=O)NC(=O)C1` (stereo not drawn) [ICRF-193] as the molecule, how does the efficacy read?
**A.** The efficacy was -32.2%.

**Q.** With `COc1ccc(-n2c(C)c([N+](=O)[O-])c3ccc(O)cc32)cc1` [ID-8] as the molecule, how does the efficacy read?
**A.** Its efficacy is -14.4%.

**Q.** `O=C(O)CCCCCC(=O)NN=C1CCCC1` [IDE-2] was tested. Which efficacy did it give?
**A.** Its efficacy is -8.18%.

**Q.** With `CCCCc1ccc(N[S+](=O)([O-])c2ccc(C)c(C(=O)N3CCN(c4cccc(C)c4C)CC3)c2)cc1` [IDH-001] as the molecule, how does the efficacy read?
**A.** The efficacy was -48.4%.

**Q.** For `Cc1ccccc1C(C(=O)NC1CCCCC1)N(C(=O)CNc1ccc(C#N)cc1)c1cccc(F)c1` (stereo not drawn) [IDH-C227], which efficacy is on record?
**A.** Its efficacy is -56.1%.

**Q.** With `COc1cc2ncn(-c3cc(OCc4ccccc4[S+](C)(=O)[O-])c(C#N)s3)c2cc1OC` [IKK-3 Inhibitor IX] as the molecule, how does the efficacy read?
**A.** Its efficacy is -13.8%.

**Q.** `OC(=O)CNC(=O)\C1=C(/O)C2=CC=CC=C2N(CC3=CC=CC=C3)C1=O` [IOX2] was tested. Which efficacy did it give?
**A.** The efficacy was 9.68%.

**Q.** With `O=C(O)c1ccc(O)c2ncccc12` [IOX-1] as the molecule, how does the efficacy read?
**A.** Its efficacy is -36.7%.

**Q.** With `Oc1ccc2ccccc2c1SSc1c(O)ccc2ccccc12` [IPA-3] as the molecule, how does the efficacy read?
**A.** Its efficacy is -115%.

**Q.** Which efficacy does the source give for `Cc1cc(/C=c2/sc3nc4ccccc4n3c2=O)c(C)n1-c1ccccc1` [ITX3] here?
**A.** The efficacy was -19.9%.

**Q.** `CC1=CC=C2N=C(NC(=O)CS\C3=N\C4=C(\SCC4)C(=O)N3C5=CC=CC=C5)SC2=C1` [IWP-2] was tested. Which efficacy did it give?
**A.** Its efficacy is -12.9%.

**Q.** For `O=C1CC[C@H](N2Cc3c(OCc4ccc(CN5CCOCC5)cc4)cccc3C2=O)C(=O)N1` [Iberdomide], which efficacy is on record?
**A.** Its efficacy is -18.8%.

**Q.** `CC(C)(N)C(=O)N[C@H](COCc1ccccc1)C(=O)N1CCC2(CC1)CN([S+](C)(=O)[O-])c1ccccc12` [Ibutamoren mesilate] was tested. Which efficacy did it give?
**A.** Its efficacy is -50.7%.

**Q.** For `CCCCCCCN(CC)CCCC(O)c1ccc(N[S+](C)(=O)[O-])cc1` (stereo not drawn) [Ibutilide fumarate], which efficacy is on record?
**A.** The efficacy was -59.1%.
